In patent US8465756B2, “Immunogenic peptides of tumor associated antigen L6 and uses thereof in cancer therapy” (National Health Research Institutes, priority 2009, dated 2013):

Tests used:
[1] = test system: human HLA-A24 and β2-microglobulin; experiment: MHC-peptide complex formation assay (ELISA), HLA-A24; type: binding; settings: MHC-peptide formation rate versus positive control peptide
[2] = test system: T cells (spleen cells from HLA-A24 transgenic mice); experiment: IFN-γ ELISpot on spleen cells of peptide-immunized HLA-A24 transgenic mice; type: in vivo, HLA-A24 transgenic mouse; settings: HLA-A24 transgenic mice immunized as in Example 2; FIG. 2
Description: FIG. 2 is a chart showing induction of interferon γ in spleen cells from HLA-A24 transgenic mice immunized with a number of immunogenic peptides from TAL6: peptides 17 (SEQ ID NO:14), 18 (SEQ ID NO:15), 20 (SEQ ID NO:16), 21 (SEQ ID NO:17), 22 (SEQ ID NO:18), 23 (SEQ ID NO:19), 24 (SEQ ID NO:20), 26 (SEQ ID NO:21), 27 (SEQ ID NO:22), 29 (SEQ ID NO:41), and 30 (SEQ ID NO:23). “N” refers to a negative control and “P” refers to a positive control.
(§1) One mg of each of the peptides (test peptides) that were identified as HLA-A2-restricted T-cell epitopes in Examples 1 above and 1 mg of PADRE peptide ([…]; SEQ ID NO:25), both in 0.5 ml PBS, were mixed together with 0.5 mL incomplete Freund's adjuvant (IFA). An EBV-derived HLA-A2-restricted epitope, i.e., […](GLC; SEQ ID NO:35), was used as a positive control and an EBV-derived HAL-A24-restricted epitope, i.e., TYGPVFMCL (TYG; SEQ ID NO:37), was used as negative control. 100 μl of the mixture (containing 50 μg of a test peptide) was injected s.c. into the tail base of a HLA-A2 transgenic mouse, once every 7 days for two times. Spleen cells were harvested from the treated mice 7 days after the second injection and cultured in the presence of 10 μg/mL of the test peptide. The supernatant of the cell culture was subjected to an ELISpot assy to examine the amount of IFN-γ contained therein, which correlates to the activity of the test peptide for stimulating T cells.
Each of the peptides (test peptides) that were identified as HLA-A24-restricted T-cell epitopes in Examples 3 above were used to immunize HAL-A24 transgenic mice, following the procedures described in Example 2 above. EBV peptides GLC and TYG were used as a negative control and a positive control, respectively.

[3] = test system: T cells (spleen cells from HLA-A2 transgenic mice); experiment: IFN-γ ELISpot on spleen cells of peptide-immunized HLA-A2 transgenic mice; type: in vivo, HLA-A2 transgenic mouse; settings: 50 μg peptide with PADRE peptide and IFA s.c. twice; spleen cells cultured with 10 μg/mL test peptide; FIG. 1
Protocol: FIG. 1 is a chart showing induction of interferon γ in spleen cells from HLA-A2 transgenic mice immunized with a number of immunogenic peptides from TAL6: peptides 1 (SEQ ID NO:1), 2 (SEQ ID NO:2), 5 (SEQ ID NO:4), 6 (SEQ ID NO:5), 7 (SEQ ID NO:6), 8 (SEQ ID NO:7), 9 (SEQ ID NO:8), 11 (SEQ ID NO: 10), and 14 (SEQ ID NO:12). “NP” refers to absence of any peptide.
as §1

[4] = test system: splenocytes from pEK/TAL6-immunized mice; experiment: IFN-γ ELISpot on splenocytes of pEK/TAL6 DNA immunized mice stimulated with TAL6 peptides; type: in vivo; settings: splenocytes from pEK/TAL6-immunized mice stimulated with the peptide; FIG. 3
[5] = test system: tumor cells EL4/TAL6/HLA-A2; experiment: Tumor growth after peptide immunization and transplantation of EL4/TAL6/HLA-A2 tumor cells; type: in vivo, mice
Protocol: FIG. 4 is a chart showing inhibition of tumor growth in mice immunized by immunopeptides derived from TAL6. Tumor volume was calculated using the formula: tumor volume=length×width×width/2. Panel (a): HLA-A2 transgenic mice. Panel (b): Wild-type mice.
Peptide 2 or Peptide 5 listed in Table 1 above, mixed with IFA, was administered subcutaneously to HLA-A2 transgenic mice (50 μg/mouse) or wild-type C57BL/6 mice twice in two weeks. Twenty-one days later, each of the immunized mice was transplanted subcutaneously with 2×10^5 of tumor cells EL4/TAL6/HLA-A2 (EL4 cells stably expressing both TAL6 and HLA-A2) to induce tumor growth in the immunized mice. Sizes of the tumors in the treated mice were monitored every 2-3 days. The tumor volume was calculated using the formula: tumor volume=length×width×width/2.

[6] = HLA-A2 transgenic mice, 50 μg/mouse peptide with IFA s.c. twice, FIG. 4 panel (a)

Sequence | Relative binding (%) to HLA-A24 [1] | other results
CYGKCARCI (Synthetic HLA-A24 restricted CTL epitope (2-10 aa of TAL6)) [Peptide 17, TAL6 position 2-10] | 125.73% | –
EWNVSLFSI (Synthetic HLA-A24 restricted CTL epitope (157-165 aa of TAL6)) [Peptide 30, TAL6 position 157-165] | 74.01% | IFN-γ secretion of T cells [2]: induced IFN-γ secretion of T cells
EWNVSLFSIL (Synthetic HLA-A24 restricted CTL epitope (157-166 aa of TAL6)) [Peptide 31, TAL6 position 157-166] | 22.24% | –
FFSGIVGGGL (Synthetic HLA-A24 restricted CTL epitope (49-57 aa of TAL6)) [Peptide 23, TAL6 position 49-57] | 72.36% | –
GGIEFILCL (Synthetic HLA-A24 restricted CTL epitope (170-178 aa of TAL6)) [Peptide 32, TAL6 position 170-178] | 25.29% | –
GGIEFILCLI (Synthetic HLA-A24 restricted CTL epitope (170-179 aa of TAL6)) [Peptide 33, TAL6 position 170-179] | 14.85% | –
GYCVIVAAL (Synthetic HLA-A24 restricted CTL epitope (105-113 aa of TAL6)) [Peptide 24, TAL6 position 105-113] | 117.78% | –
HIVEWNVSLF (Synthetic HLA-A24 restricted CTL epitope (154-163 aa of TAL6)) [Peptide 28, TAL6 position 154-163] | 28.03% | –
HSLVGLALL (Synthetic HLA-A24 restricted CTL epitope (12-20 aa of TAL6)) [Peptide 18, TAL6 position 12-20] | 61.73% | –
IAANILLYF (Synthetic HLA-A24 restricted CTL epitope (22-30 aa of TAL6)) [Peptide 19, TAL6 position 22-30] | 0.00% | –
IVEWNVSLF (Synthetic HLA-A24 restricted CTL epitope (155-163 aa of TAL6)) [Peptide 29, TAL6 position 155-163] | 41.01% | IFN-γ secretion of T cells [2]: induced IFN-γ secretion of T cells
KYASENHLS (Synthetic HLA-A24 restricted CTL epitope (36-44 aa of TAL6)) [Peptide 21, TAL6 position 36-44] | 64.59% | –
LLMLLPAFV (Synthetic HLA-A2 restricted CTL epitope (58-66 aa of TAL6)) [Peptide 5, TAL6 position 58-66] | – | IFN-γ secretion of T cells [3]: induced IFN-γ secretion of T cells; IFN-γ-secreting cells activated by test TAL6 peptide [4]: responsive; Inhibition of tumor growth (tumor volume) [5, 6]: significantly inhibited tumor growth; Inhibition of tumor growth (tumor volume) ([5]; wild-type C57BL/6 mice, peptide with IFA s.c. twice, FIG. 4 panel (b)): not in the wild-type mice
LYFPNGETKY (Synthetic HLA-A24 restricted CTL epitope (28-36 aa of TAL6)) [Peptide 20, TAL6 position 28-36] | 84.95% | –
QYLLDTSTW (Synthetic HLA-A24 restricted CTL epitope (138-147 aa of TAL6)) [Peptide 27, TAL6 position 138-147] | 110.75% | IFN-γ secretion of T cells [2]: induced IFN-γ secretion of T cells
RFVWFFSGI (Synthetic HLA-A24 restricted CTL epitope (45-53 aa of TAL6)) [Peptide 22, TAL6 position 45-53] | 91.88% | –
SLVGLALLC (Synthetic HLA-A2 restricted CTL epitope (13-21 aa of TAL6)) [Peptide 2, TAL6 position 13-21] | – | IFN-γ secretion of T cells [3]: induced IFN-γ secretion of T cells; IFN-γ-secreting cells activated by test TAL6 peptide [4]: responsive; Inhibition of tumor growth (tumor volume) [5, 6]: reduced tumor growth in the HLA-A2 transgenic mice, albeit in a lower level
TFASTEGQY (Synthetic HLA-A24 restricted CTL epitope (131-139 aa of TAL6)) [Peptide 25, TAL6 position 131-139] | 49.24% | –
TFASTEGQYL (Synthetic HLA-A24 restricted CTL epitope (131-140 aa of TAL6)) [Peptide 26, TAL6 position 131-140] | 115.71% | –
